Experimental data as given in US20080305038A1, “Transport of Nano-and Macromolecular Structures Into Cytoplasm and Nucleus of Cells” (LUDWIG-MAXIMILIANS-UNIVERSITÄT, priority 2005, published 2008).
“Also recorded” adds a separate entry of the source.

Assays:
Format in all cases: cell-based
HepG2 cells [1] = test: Quantification of cellular and nuclear uptake by flow cytometry (FACS); details: 1 h incubation; for nuclear uptake, nucleus associated FITC fluorescence (FACS): cell lysis with Nonidet P 40, released nucleoli; for cellular uptake (FACS): whole cells detached with trypsine
Protocol: Therefore, HepG2 cells were incubated for 1 h with FITC labelled constructs or with FITC labelled and TP-modified conjugates as used in experiments 1 to 4. After incubation cells were detached from the bottom of the cell culture plates (whole cells) by using either a trypsine containing solution or a trypsine containing solution supplemented with detergent Nonidet P 40. Detergent Nonidet P 40 leads to lysis of cytoplasm membranes and release of nucleoli. Propidiumiodid was added to trypsine buffer in order to identify the nucleoli.

HepG2 cells [2] = test: Uptake of conjugates into cells, epifluorescence microscopy; details: 1 h incubation, 5 μM, fixed with paraformaldehyde
Protocol: (§1) Corresponding cell lines were seeded in 8-chamber sample carriers (Falcon, #4108, BD Bioscience, Belgium) resulting in about 70-80% confluence next day. Cells were incubated along with inventive conjugates for 1 h at 37° C. and 5% CO2 in an incubator (c=5 μM). Subsequently thereto cells were washed twice with PBS and fixed with a solution containing 4% paraformaldehyde. The nucleoli were colored by using the fluorescence dye DAPI (0.3 μM) or propidiumiodid (3 μM) and cells were embedded (Vectashield, Vector Laboratories, Burlingame, Calif., USA). Photographs were taken using a Sony 3CCD camera having an Axiovert 135-microscope (Carl-Zeiss, Göttingen, Germany; objective: Plan-Neofluar 100×/1.3 oil). Optical transsections for laser scanning microscopy were performed using a confocal microscope having three channels (TCS 4D; Leica Inc. Deerfield, Ill.) equipped with a Plan Apo 63×/1.32 oil objective). Both fluorescence dyes FITC and propidiumiodide were irradiated at wavelengths 488 nm and 567 nm using an argon/krypton laser. 256×256 8 bit pictures were generated having an axial distance of 250 nm and a pixel size of […]. Each picture series consisted of about 20-25 pictures. Both fluorochromes were mapped sequentially in the same nucleolus layer.
Therefore, HepG2 cells were incubated for 1 h with FITC-labelled BSA conjugates (5 μm) and fixed with paraformaldehyde. Results were analysed by epifluorescence microscopy (see FIG. 2). The cellular and nuclear epifluorescence photographs show an FITC signal of BSA in the left column and an FITC-BSA-TP signal in the right column. The corresponding nucleoli were colored using the fluorescent dye propidiumiodid.
Dextran constructs and modifications were prepared analogously to BSA constructs as shown above in section 2.1. As a starting material an amino-modified dextran was used having a molecular weight of 70,000 (MW). […] Analysis was carried out using epifluorescence microscopy (see FIG. 4). The corresponding nucleoli were colored using the fluorescent dye propidiumiodid.
Similar as shown in 2.1 and 2.2 IgG1 constructs were analyzed as to whether they may be transported into the cells upon TP modification. IgG1 constructs and modifications were prepared analogously to BSA and dextran constructs as shown above in sections 2.1 and 2.2. As a starting material bovine IgG was used having a molecular weight of approximately 130,000 (MW). […] Analysis was carried out using epifluorescence microscopy (see FIG. 5). The corresponding nucleoli were colored using the fluorescent dye propidiumiodid.
PEG based negatively charged liposomes were used showing distal unmodified (carboxylic moiety) or TP-modified PEG chains. The liposomes were modified with fluorescence labelled lipids. Thereafter, HepG2 cells were coincubated with fluorescence labelled liposomes and fixed at different times. In order to detect uptake by cells and nucleus, epifluorescence microscopy was carried out (see FIG. 7). The nucleoli were colored with DAPI. From top to bottom a control experiment and the results from 1, 1.5, 2.5 and 4 h incubation are shown.
Therefore, a reporter plasmid encoding the luciferase gene and having a size of 6.4 kb was TP modified and incubated with HepG2 cells for 1 h.

HepG2 cells [3] = test: Cellular and nuclear uptake, confocal laser scanning microscopy
Protocol: as §1
Confocal laser scanning microscopy was additionally carried out (see FIG. 3), since in epifluorescence, microscopy the resulting signal assumable may be due to association of the FITC-BSA-TP conjugates with the nuclear membrane.

intact cells = test: Dependency of cellular and nuclear uptake on TP-substituent (chemical modification), intact cells; details: chemically modified TP-substituent of FITC-BSA-TP
Protocol: 1.3 Modification of FITC-BSA-TP Conjugates FITC-BSA was reacted with a 10-fold excess of cystein in PBS (pH=8, He-saturated) for 3 h. Photometric determination of cleaved thiopyridone indicated complete reaction of FITC-BSA-TP to FITC-BSA-Cys. The conjugate was purified chromatographically (Sephadex G-25 superfine HR 10/10 column; Pharmacia, Uppsala, Sweden). FITC-BSA-TP was reacted in presence of 13 mM DTT for 2 h and purified by chromatography in order to obtain a FITC-BSA conjugate with free thiol-function. Determination of degree of conjugation with Ellmanns' reagent indicated complete separation of the thiopyridone moiety, which, in consequence, led to FITC-BSA-SH. The synthesized FITC-BSA-SH conjugate was further reacted with a 50-fold excess of N-ethylmaleimide for 2 h and purified by chromatography subsequently. Controlling the product for remaining thiol moieties by using Elmanns' reagent indicated a complete reaction to FITC-BSA-NEM. 1.4 Coupling of FITC and SPDP to plasmid-DNA Coupling of FITC and SPDP with plasmid-DNA was carried out by photochemical coupling using psoralenamin. Therefore, a kit from company Sima was used (PS-amine). Coupling was carried out following the manufacturers' instructions. 4 μl of reconstituted psoralenamine solution (4.83 psoralenamine) were pipetted to 100 μl solubilized DNA (μCLuc in pur. water, 200 μg/ml DNA). The resulting solution was vortexed vigorously. The solution was irradiated with UV (λ=366 nm, 6 watt, 850 μwatt/cm^2) for 45 minutes on ice. Portions of each 50 μl were purified using a G-25 Microspin column (Amersham) and, subsequently, 2 μl 1×PBS were added. To one 50 μl fraction of the purified Psoralenamin-coupled DNA 2 μl FITC-NHS solution ([…] in DMF) were added. To the other 50 μl fraction a mixture consisting of 2 μl FITC-NHS (10 mg/ml in DMF) 2 μl SPDP (10 mg/ml in EtOH) were added. The solutions were agitated for 1.5 h at room temperature. Subsequent thereto plasmid-DNA conjugates were purified repeatedly using a G-25 Microspin column (Amersham), and used for cell culture experiments. […]

HepG2 cells [4] = test: Uptake in non-fixed and lysed cells, epifluorescence microscopy
Protocol: In order to exclude artifacts resulting from fixing of cells FITC-modified BSA and FITC-BSA-TP conjugates (5 μM) were incubated for 1 h with HepG2 cells. Subsequently, cells were immediately transferred in PBS or lysed with lysis buffer within 30 minutes and analyzed via epifluorescence microscopy. […] Consequently, artifacts can be excluded due to fixing of cells.
Additionally, cytoplasma membrane of HepG2 of cells was lysed with lysis buffer (20 mM HEPES, 10 mM KCl, 0.5 mM EDTA, 0.1% Triton X-100, pH7.5) subsequent to incubation. […] Consequently, FITC-BSA-TP conjugates are localized in the nucleus.

HepG2 cells [5] = test: Uptake of β-galactosidase, activity visualized by X-Gal; details: 5 μM, 1 h or 24 h
Protocol: Analogous to sections 2.1 to 2.3 above the enzyme β-galactosidase was modified with TP. […] Subsequent to modification HepG2 cells were incubated with (TP) modified β-galactosidase (5 μM) for 1 h or 24 h and then fixed in paraformaldehyde. β-galactosidase activity was visualized by using X-Gal (see FIG. 6).

CHO cells = test: Cell surface biotinylation for cargo (FITC-Avidin) uptake, FACS; details: CHO cells pretreated 30 minutes at 4° C. at 185 μM, then 75 pmol FITC-Avidin, one hour at 37° C.
Protocol: (§2) Biotin-HPDP (Pierce, #21341) was solubilized in DMF and diluted in PBS (pH=7.4) to a final concentration of 100 μg/ml. 500 μl of this solution (=92.6 nmol) were incubated on CHO and HeLa cells (1×10^6 cells per Well) for 30 minutes at 4° C. After washing twice with PBS, 5 μg (=75 pmol) Avidin-FITC (Sigma, #A9275) were added and cells were incubated for 1 h at 37° C. After incubation, cells were washed twice with PBS and harvested with Trypsin-EDTA (Invitrogen, #25300-054). […] 1000 cells per sample were counted.
(§3) Instead of Biotin-HPDP, also Biotin (Sigma, #B4639), Biotin-Maleimid (Sigma, #B1267) or PBS (for determination of unspecific binding of Avidin-FITC) was incubated on the cells at equimolar concentrations.

HeLa cells = test: as above; details: HeLa cells pretreated 30 minutes at 4° C. at 185 μM, then 75 pmol FITC-Avidin, one hour at 37° C.
Protocol: as §2, §3

Row | Molecule | nuclear uptake, nucleus associated FITC fluorescence (FACS) (HepG2 cells [1]) [%] | cellular uptake (FACS) (HepG2 cells [1]) [%] | cellular uptake (uptake into cytoplasm) (HepG2 cells [2]) | nuclear uptake (uptake into the nucleus) (HepG2 cells [2]) | cellular or nuclear uptake (intact cells) | also measured
1 | FITC-BSA-TP: FITC-labelled BSA reacted with SPDP; thiopyridyl (PDP) conjugation degree ~9-10 per BSA | 63 | 78 | uptake of FITC-BSA-TP constructs into cytoplasm and nucleus | clearly observable; also recorded: uptake of FITC-BSA-TP constructs into cytoplasm and nucleus | cellular and nuclear uptake are only observable if an intact TP-substituent is present | cellular uptake (localization in the cytoplasm) (HepG2 cells [3]): cellular uptake; nuclear uptake (localization in the nucleus) (HepG2 cells [3]): Uptake of BSA into the nucleus is clearly observable; also recorded: nuclear uptake of FITC-BSA-TP is observable; distribution in fixed versus non-fixed cells (HepG2 cells [4]; 5 μM, 1 h, transferred in PBS without fixing, epifluorescence): identical in both fixed and non-fixed HepG2 cells; fluorescence signal after lysis of cytoplasma membrane (HepG2 cells [4]; lysis buffer with 0.1% Triton X-100 after incubation): a fluorescence signal was clearly observed in the nucleus
2 | FITC-BSA-NEM: FITC-BSA-SH reacted with excess N-ethylmaleimide, thiol blocked |  |  |  |  | Neither the free sulfhydryl moiety nor the sulfhydryl moiety blocked by N-ethylmaleimide mediated cellular or nuclear uptake | 
3 | FITC-Dextran | 7 | 25 | Uptake of non-modified FITC-Dextran into cytoplasm of HepG2 cells could also be observed | no uptake of FITC-Dextran into the nucleus could be observed |  | 
4 | FITC-BSA: BSA labelled with carboxyfluorescein-N-hydroxysuccinimidester, without TP modification | 51 | 55 | Uptake of non-modified FITC-BSA into cytoplasm of HepG2 cells could also be observed | no uptake of FITC-BSA into the nucleus could be observed |  | cellular uptake (localization in the cytoplasm) (HepG2 cells [3]): localization in the cytoplasm; nuclear uptake (localization in the nucleus) (HepG2 cells [3]): no localization of non-modified FITC-BSA in the nucleus could be observed
5 | non-modified β-galactosidase: enzyme β-galactosidase without TP modification, control |  |  |  |  |  | cellular uptake of β-galactosidase (HepG2 cells [5]): negligible; nuclear uptake of β-galactosidase (HepG2 cells [5]): no nuclear uptake
6 | Biotin-Maleimid |  |  |  |  |  | delivery of cargo (FITC-Avidin) to cells, FITC-positive cells by FACS (CHO cells): highly efficient cargo accumulation at the cellular surface; delivery of cargo (FITC-Avidin) to cells, FITC-positive cells by FACS (HeLa cells): highly efficient cargo accumulation at the cellular surface
7 | O=C(CCCC[C@@H]1SC[C@@H]2NC(=O)N[C@@H]21)NCCCCCCNC(=O)CCSSc1ccccn1 [Biotin-HPDP, N-[6-(Biotinamido)hexyl]-3′-(2′-pyridyldithio)propionamide] |  |  |  |  |  | delivery of cargo (FITC-Avidin) to cells, FITC-positive cells by FACS (CHO cells): efficiently deliver cargo molecules to cells; delivery of cargo (FITC-Avidin) to cells, FITC-positive cells by FACS (HeLa cells): efficiently deliver cargo molecules to cells
8 | FITC-BSA-SH: FITC-BSA-TP reacted with DTT, giving FITC-BSA conjugate with free thiol-function |  |  |  |  | Neither the free sulfhydryl moiety nor the sulfhydryl moiety blocked by N-ethylmaleimide mediated cellular or nuclear uptake | 
